According to patent US4880817A, “O-functionalized derivatives of substituted isoquinolin-3-ols having cardiotonic and/or phosphodiesterase fraction III inhibiting properties and/or renal vasodilating properties” (Ortho Pharmaceutical Corporation, priority 1987, dated 1989):
Where two headings read alike, the source gives them in different places.

Assays:
adult mongrel dogs [1] = test: Acute in vivo cardiotonic activity in anesthetized dogs; parameters: species or system mongrel dog; conditions: Canis lupus familiaris, iv, relative to controls; for change in vivo at 0.375 mg/kg: dose 0.375 mpk; for change in vivo at 0.875 mg/kg: dose 0.875 mpk; for change in vivo at 1.87 mg/kg: dose 1.87 mpk
Description: The acute in vivo cardiotonic activity of compounds prepared according to the present invention was determined according to a modification of the procedure described by Alousi et al., Circ.
In particular, adult mongrel dogs were anesthetized with sodium pentobarbital and were artificially respired. Arterial pressure was monitored via a femoral artery, and the pulse pressure was used to trigger a cardiotachometer for heart rate. Left ventricular pressure was determined with a Millar catheter, and dP/dT (the change in ventricular pressure with time) was derived. Cardiac output was determined by measuring ascending aortic blood flow with an electromagnetic flow probe, and myocardial contractile force was measured with a Walton Brodie strain gauge sutured to the right ventricle. Lead II EKG was also recorded.
A standard dose (10 μg/kg/min) of dopamine was administered to assess myocardial responsiveness.
Compounds of the invention were administered by intravenous infusion and the effects on cardiovascular parameters were determined.

adult mongrel dogs [2] = test: Renal vasodilating activity in anesthetized dogs; assay type: in vivo, mongrel dog; conditions: Canis lupus familiaris
Description: Goldberg et al., J. Pharmacol. Exp. Ther., 163, 188 (1968), performed an investigation of the structural requirements for dopamine-like renal vasodilation of phenethylamines and apomorphine. The following procedure is a variation of the assay described in that report.
Adult mongrel dogs were anesthetized and surgically prepared for electromagnetic measurement of renal artery blood flow. A carotid artery was cannulated for measuring arterial blood pressure and drugs were administered intravenously or intraarterially (via the renal artery). Heart rate was monitored with a cardiotachometer. Renal vascular resistance was calculated as the ratio of mean arterial blood pressure to renal artery blood flow. Dopamine was infused intravenously at 3 μg/kg/min for ten minutes (at an infusion rate of about 1 ml/min) to determine responsiveness of each dog to renal dopamine receptor stimulation. Cumulative dose-response data were obtained by infusing a compound of this invention at progressively increasing (usually three-fold) infusion rates, each dose being infused for five minutes. The maximum percent change from pre-drug control in renal artery blood flow (or in renal vascular resistance) was determined for each infusion dose.
RBF, RVR, MABP, and HR values are percent changes in renal blood flow, renal vascular resistance, mean arterial blood pressure, and heart rate, respectively, relative to control values.

[3] = read-out: CF: percent change in cardiac force
[4] = read-out: HR: percent change in heart rate
[5] = read-out: MABP: percent change in mean arterial blood pressure
[6] = read-out: dP/dT: maximum percent change in left ventricular pressure with time
[7] = dose 6.2 mpk, relative to controls, read-out: HR: percent change in heart rate
[8] = dose 6.2 mpk, relative to controls, read-out: RBF: percent change in renal blood flow
[9] = dose 6.2 mpk, relative to controls, read-out: RVR: percent change in renal vascular resistance
[10] = read-out: HR: percent change in heart rate, dose 6.2 mpk, relative to controls
[11] = read-out: MABP: percent change in mean arterial blood pressure, dose 6.2 mpk, relative to controls
[12] = read-out: RBF: percent change in renal blood flow, dose 6.2 mpk, relative to controls
[13] = read-out: RVR: percent change in renal vascular resistance, dose 6.2 mpk, relative to controls
[14] = dose 6.2 mpk, relative to controls, read-out: MABP: percent change in mean arterial blood pressure

Compound CCOc1cc2c(C)nc(OC(=O)CC)c([N+](=O)[O-])c2cc1OC [Cmpd 4] has a change in vivo at 0.375 mg/kg (adult mongrel dogs [1]; [3]) of 100%, a change in vivo at 0.375 mg/kg (adult mongrel dogs [1]; [4]) of 7% and a change in vivo at 0.375 mg/kg (adult mongrel dogs [1]; [5]) of -25%. For the same compound, the change in vivo at 0.375 mg/kg (adult mongrel dogs [1]; [6]) was 46%.
With COc1cc2c(C)nc(OC(=O)c3ccccc3)c([N+](=O)[O-])c2cc1OC [Cmpd 7] the change in vivo at 0.875 mg/kg (adult mongrel dogs [1]; [3]) was 59%, the change in vivo at 0.875 mg/kg (adult mongrel dogs [1]; [4]) was 4% and the change in vivo at 0.875 mg/kg (adult mongrel dogs [1]; [5]) was -10%. For the same compound, the change in vivo at 0.875 mg/kg (adult mongrel dogs [1]; [6]) was 34%.
CCOc1cc2c(C)nc(OC(=O)c3ccccc3)c([N+](=O)[O-])c2cc1OC [Cmpd 8] gave a change in vivo at 0.375 mg/kg (adult mongrel dogs [1]; [3]) of 124%, a change in vivo at 0.375 mg/kg (adult mongrel dogs [1]; [4]) of 10% and a change in vivo at 0.375 mg/kg (adult mongrel dogs [1]; [5]) of -20%. It also gave a change in vivo at 0.375 mg/kg (adult mongrel dogs [1]; [6]) of 54%.
Compound COc1cc2c(C)nc(OC(=O)C(C)(C)C)c([N+](=O)[O-])c2cc1OC [Cmpd 12] has a change in vivo at 6.2 mg/kg (adult mongrel dogs [2]; [7]) of 12%, a change in vivo at 6.2 mg/kg (adult mongrel dogs [2]; [8]) of 38% and a change in vivo at 6.2 mg/kg (adult mongrel dogs [2]; [9]) of -26%. It also gave a change in vivo at 1.87 mg/kg (adult mongrel dogs [1]; [3]) of 70%, a change in vivo at 1.87 mg/kg (adult mongrel dogs [1]; [4]) of 14% and a change in vivo at 1.87 mg/kg (adult mongrel dogs [1]; [5]) of -10%. The change in vivo at 1.87 mg/kg (adult mongrel dogs [1]; [6]) was 51%.
Compound COc1cc2c(C)nc(OC(=O)N(C)C)c([N+](=O)[O-])c2cc1OC [Cmpd 13] has a change in vivo at 6.2 mg/kg (adult mongrel dogs [2]; [10]) of 12%, a change in vivo at 6.2 mg/kg (adult mongrel dogs [2]; [11]) of -5% and a change in vivo at 6.2 mg/kg (adult mongrel dogs [2]; [12]) of 8%. It also gave a change in vivo at 6.2 mg/kg (adult mongrel dogs [2]; [13]) of -12%, a change in vivo at 1.87 mg/kg (adult mongrel dogs [1]; [3]) of 49% and a change in vivo at 1.87 mg/kg (adult mongrel dogs [1]; [4]) of 6%. For the same compound, the change in vivo at 1.87 mg/kg (adult mongrel dogs [1]; [5]) was -8% and the change in vivo at 1.87 mg/kg (adult mongrel dogs [1]; [6]) was 24%.
Work on CCOc1cc2c([N+](=O)[O-])c(OC(=O)C(C)(C)C)nc(C)c2cc1OC [Cmpd 23] yielded a change in vivo at 1.87 mg/kg (adult mongrel dogs [1]; [3]) of 27%, a change in vivo at 1.87 mg/kg (adult mongrel dogs [1]; [4]) of 5% and a change in vivo at 1.87 mg/kg (adult mongrel dogs [1]; [5]) of 3%. It also gave a change in vivo at 1.87 mg/kg (adult mongrel dogs [1]; [6]) of 24%.
COc1cc2c(C)nc(OS(=O)(=O)N(C)C)c([N+](=O)[O-])c2cc1OC [Cmpd 25] showed a change in vivo at 6.2 mg/kg (adult mongrel dogs [2]; [7]) of 32%, a change in vivo at 6.2 mg/kg (adult mongrel dogs [2]; [14]) of -12% and a change in vivo at 6.2 mg/kg (adult mongrel dogs [2]; [8]) of 61%. The change in vivo at 6.2 mg/kg (adult mongrel dogs [2]; [9]) was -46%, the change in vivo at 1.87 mg/kg (adult mongrel dogs [1]; [3]) was 49% and the change in vivo at 1.87 mg/kg (adult mongrel dogs [1]; [4]) was 5%. The change in vivo at 1.87 mg/kg (adult mongrel dogs [1]; [5]) was 12% and the change in vivo at 1.87 mg/kg (adult mongrel dogs [1]; [6]) was 61%.
Work on CCN(CC)C(=O)Oc1nc(C)c2cc(OC)c(OC)cc2c1[N+](=O)[O-] [Cmpd 27, 3-Diethylcarbamyloxy-6,7-dimethoxy-1-methyl-4-nitroisoquinoline] yielded a change in vivo at 6.2 mg/kg (adult mongrel dogs [2]; [10]) of 13%, a change in vivo at 6.2 mg/kg (adult mongrel dogs [2]; [11]) of -12% and a change in vivo at 6.2 mg/kg (adult mongrel dogs [2]; [13]) of -30%. It also gave a change in vivo at 1.87 mg/kg (adult mongrel dogs [1]; [3]) of 87%, a change in vivo at 1.87 mg/kg (adult mongrel dogs [1]; [4]) of 46% and a change in vivo at 1.87 mg/kg (adult mongrel dogs [1]; [5]) of 17%. For the same compound, the change in vivo at 1.87 mg/kg (adult mongrel dogs [1]; [6]) was 41%.
Compound CCOc1cc2c(C)nc(OC(=O)N(CC)CC)c([N+](=O)[O-])c2cc1OC [Cmpd 28] has a change in vivo at 6.2 mg/kg (adult mongrel dogs [2]; [10]) of 5%, a change in vivo at 6.2 mg/kg (adult mongrel dogs [2]; [11]) of -18% and a change in vivo at 6.2 mg/kg (adult mongrel dogs [2]; [12]) of 50%. For the same compound, the change in vivo at 6.2 mg/kg (adult mongrel dogs [2]; [13]) was -45%, the change in vivo at 0.875 mg/kg (adult mongrel dogs [1]; [3]) was 71% and the change in vivo at 0.875 mg/kg (adult mongrel dogs [1]; [4]) was 27%. For the same compound, the change in vivo at 0.875 mg/kg (adult mongrel dogs [1]; [5]) was -4% and the change in vivo at 0.875 mg/kg (adult mongrel dogs [1]; [6]) was 70%.
In the case of CCN(CC)c1c(OC(C)=O)nc(C)c2cc(OC)c(OC)cc12 [Cmpd 29, 3-Acetoxy-4-(N,N-diethylamino)-6,7-dimethoxy-1-methylisoquinoline 1/2 Hydrate], the change in vivo at 1.87 mg/kg (adult mongrel dogs [1]; [3]) is reported as 79%, the change in vivo at 1.87 mg/kg (adult mongrel dogs [1]; [4]) is reported as 13% and the change in vivo at 1.87 mg/kg (adult mongrel dogs [1]; [5]) is reported as 6%. It also gave a change in vivo at 1.87 mg/kg (adult mongrel dogs [1]; [6]) of 58%.
CCC(=O)Nc1c(OC(=O)CC)nc(C)c2cc(OC)c(OC)cc12 [Cmpd 33, 6,7-Dimethoxy-1-methyl-4-[N-propanamido]-3-propanoyloxyisoquinoline] gave a change in vivo at 6.2 mg/kg (adult mongrel dogs [2]; [7]) of -9%, a change in vivo at 6.2 mg/kg (adult mongrel dogs [2]; [14]) of -9% and a change in vivo at 6.2 mg/kg (adult mongrel dogs [2]; [8]) of 41%. It also gave a change in vivo at 6.2 mg/kg (adult mongrel dogs [2]; [9]) of -35%, a change in vivo at 1.87 mg/kg (adult mongrel dogs [1]; [3]) of 132% and a change in vivo at 1.87 mg/kg (adult mongrel dogs [1]; [4]) of 18%. It also gave a change in vivo at 1.87 mg/kg (adult mongrel dogs [1]; [5]) of 17% and a change in vivo at 1.87 mg/kg (adult mongrel dogs [1]; [6]) of 84%.
Compound COc1cc2c(C)nc(OC(=O)N(c3ccccc3)c3ccccc3)c(N)c2cc1OC [Cmpd 36] has a change in vivo at 1.87 mg/kg (adult mongrel dogs [1]; [3]) of 26%, a change in vivo at 1.87 mg/kg (adult mongrel dogs [1]; [4]) of 9% and a change in vivo at 1.87 mg/kg (adult mongrel dogs [1]; [5]) of -1%. For the same compound, the change in vivo at 1.87 mg/kg (adult mongrel dogs [1]; [6]) was 26%.
Compound COc1cc2c(C)nc(OC(=O)N(C)C)c(N)c2cc1OC [Cmpd 39] has a change in vivo at 1.87 mg/kg (adult mongrel dogs [1]; [3]) of 76%, a change in vivo at 1.87 mg/kg (adult mongrel dogs [1]; [4]) of 16% and a change in vivo at 1.87 mg/kg (adult mongrel dogs [1]; [5]) of -1%. The change in vivo at 1.87 mg/kg (adult mongrel dogs [1]; [6]) was 73%.
With CCCC(=O)Oc1nc(C)c2cc(OC)c(OC)cc2c1[N+](=O)[O-] [Cmpd 41] the change in vivo at 1.87 mg/kg (adult mongrel dogs [1]; [3]) was 166%, the change in vivo at 1.87 mg/kg (adult mongrel dogs [1]; [4]) was 29% and the change in vivo at 1.87 mg/kg (adult mongrel dogs [1]; [5]) was -34%. It also gave a change in vivo at 1.87 mg/kg (adult mongrel dogs [1]; [6]) of 62%.
Work on CCCCNC(=O)Nc1c(OC(=O)N2CCNCC2)nc(C)c2cc(OC)c(OC)cc12 [Cmpd 80] yielded a change in vivo at 1.2 mg/kg (adult mongrel dogs [2]; read-out: HR: percent change in heart rate, dose 1.2 mpk, relative to controls) of 2%, a change in vivo at 1.2 mg/kg (adult mongrel dogs [2]; read-out: MABP: percent change in mean arterial blood pressure, dose 1.2 mpk, relative to controls) of 0% and a change in vivo at 1.2 mg/kg (adult mongrel dogs [2]; read-out: RBF: percent change in renal blood flow, dose 1.2 mpk, relative to controls) of 25%. The change in vivo at 1.2 mg/kg (adult mongrel dogs [2]; read-out: RVR: percent change in renal vascular resistance, dose 1.2 mpk, relative to controls) was -16%.
In the case of CCCCCC(=O)Nc1c(OC(=O)N(CC)CC)nc(C)c2cc(OC)c(OC)cc12 [Cmpd 81], the change in vivo at 6.2 mg/kg (adult mongrel dogs [2]; [7]) is reported as -8%, the change in vivo at 6.2 mg/kg (adult mongrel dogs [2]; [14]) is reported as 9% and the change in vivo at 6.2 mg/kg (adult mongrel dogs [2]; [8]) is reported as 39%. For the same compound, the change in vivo at 6.2 mg/kg (adult mongrel dogs [2]; [9]) was -21%.
